# Experimental data published in patent publication US9789096B2, “Methods and compositions for selective and targeted cancer therapy” (Board of Regents of the University of Texas System, priority 2013, dated 2017).
# Where two headings read alike, the source gives them in different places.
# Experiments:
# H2122 = assay: Cell viability dose-response, H2122; type: cell-based, human; conditions: read-out: IC50 (uM) vs indicated non-small cell lung cancer cell line H2122
# Method in brief: (§1)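 Cells plated at 15% confluence in RPMI-1640 with 5% FBS and 2 mM L-glutamine, treated with compound in a 12-point, 3-fold dilution series from 50 micromolar, in duplicate. ATP measured by Cell Titer Glo after 4 days; IC50 taken from the dose-response curve.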
# HCC44 = assay: Cell viability dose-response, HCC44; type: cell-based, human; conditions: read-out: IC50 (uM) vs indicated non-small cell lung cancer cell line HCC44
# Method in brief: (§2)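 Steps: seed cells to 15% confluence in RPMI-1640 supplemented with 5% fetal bovine serum and 2 mM glutamine; add compound across a concentration range; incubate 4 days; measure total ATP with CellTiter-Glo. IC50 is derived from the curve.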
# H2009 = assay: Cell viability dose-response, H2009; type: cell-based, human; conditions: Homo sapiens, NCI-H2009; Tables 3 and 4; read-out: IC50 (uM) vs indicated non-small cell lung cancer cell line H2009
# Method in brief: as §2
# HCC95 = assay: Cell viability dose-response, HCC95; type: cell-based; conditions: Homo sapiens, Tables 3 and 4, read-out: IC50 (uM) vs indicated non-small cell lung cancer cell line HCC95
# Method: (§3) FIG. 6A. […] Cell viability is plotted vs. compound concentration. Compound was added to cells plated at 15% confluence in 96-well plates in RPMI-1640 media supplemented with 5% Fetal Bovine Serum and 2 mM L-Glutamine. After 4 days of incubation, ATP levels were measured using Cell Titer Glo (Promega). Data are presented as the average of 2 replicates ±SEM.
# (§4) Selectivity may be measured by the half maximal inhibitory concentration (IC50), which, as used herein, is a measure of the effectiveness of a compound in killing cells. This quantitative measure indicates how much of a particular compound is needed to kill a particular cell population by half (e.g., as indicated by the amount of ATP). […] The IC50 can be determined by constructing a dose-response curve. The lower the IC50, the higher the potency, and the greater the difference between IC50 values for different cell lines (e.g., sensitive lines vs. insensitive lines, and sensitive lines vs. normal lines) the greater the selectivity. […]
# (§5) With this information, we synthesized and tested a series of small molecules derived in conception from the oxalamide and chromone scaffold including N-acyl ureas, as shown in Tables 6-8. Each compound was tested in a 12-point dose-response study starting at 50 micromolar and decreasing in 3-fold increments to sub-nanomolar concentrations, in duplicate. Additionally, one or more additional cell line was tested in the same way.
# HBEC30KT = assay: Cell viability (ATP, Cell Titer Glo, 4 days), HBEC30KT; type: cell-based, human; conditions: Homo sapiens, Tables 3 and 4; read-out: HBEC30KT IC50
# Method: as §3, §4
# H460 = assay: Cell viability dose-response, H460; type: cell-based; conditions: Homo sapiens, NCI-H460; Tables 3 and 4; read-out: IC50 (uM) vs indicated non-small cell lung cancer cell line H460
# Method: as §3, §4, §5
# H2073 = assay: Cell viability dose-response, H2073; type: cell-based, human; conditions: read-out: IC50 (uM) vs indicated non-small cell lung cancer cell line H2073
# Method in brief: as §2
# H1395 = assay: Cell viability dose-response, H1395; type: cell-based; conditions: Homo sapiens, NCI-H1395; Tables 3 and 4; read-out: IC50 (uM) vs indicated non-small cell lung cancer cell line H1395
# Method: as §3, §4, §5
# HCC4017 = assay: Cell viability dose-response, HCC4017; type: cell-based, human; conditions: Homo sapiens, HCC4017, Tables 3 and 4; read-out: IC50 (uM) vs indicated non-small cell lung cancer cell line HCC4017
# Method: as §3, §4, §5
# HCC366 = assay: Cell viability dose-response, HCC366; type: cell-based; conditions: Homo sapiens, Tables 3 and 4, read-out: IC50 (uM) vs indicated non-small cell lung cancer cell line HCC366
# Method: as §3, §4, §5
# H1993 = assay: Cell viability dose-response, H1993; type: cell-based; conditions: Homo sapiens, NCI-H1993; Tables 3 and 4; read-out: IC50 (uM) vs indicated non-small cell lung cancer cell line H1993
# Method: as §3, §4, §5
# H1155 = assay: Cell viability dose-response, H1155; type: cell-based; conditions: Homo sapiens, NCI-H1155; Tables 3 and 4; read-out: IC50 (uM) vs indicated non-small cell lung cancer cell line H1155
# Method: as §3, §4, §5
# H1819 = assay: Cell viability dose-response, H1819; type: cell-based, human; conditions: Homo sapiens, NCI-H1819, Tables 3 and 4; read-out: IC50 (uM) vs indicated non-small cell lung cancer cell line H1819
# Method in brief: as §1
# [1] = Homo sapiens, NCI-H2122, Tables 3 and 4
# [2] = Homo sapiens, HCC44, Tables 3 and 4
# [3] = Homo sapiens, NCI-H2073, Tables 3 and 4
SMILES,IC50 (H2122; [1]) [µM],IC50 (HCC44; [2]) [µM],IC50 (H2009) [µM],IC50 (HCC95) [µM],IC50 (HBEC30KT) [µM],IC50 (H460) [µM],IC50 (H2073; [3]) [µM],IC50 (H2073; Tables 3 and 4) [µM],IC50 (H1395) [µM],IC50 (HCC4017) [µM],IC50 (HCC366) [µM],IC50 (H1993) [µM],IC50 (H1155) [µM],IC50 (H1819) [µM],IC50 (H2122; Tables 3 and 4) [µM],IC50 (HCC44; Tables 3 and 4) [µM]
COc1ccc2nc(NC(=O)c3ccc([N+](=O)[O-])cc3)sc2c1 [SW001282-2],0.159,30.1,2.81,19.6,49.2,0.512,0.752,,,,,,,,,
COC(=O)c1ccc(C(=O)Nc2nc3ccc(N)cc3s2)cc1 [SW001296],35.1,0.34,,,,4.46,,3.72,,,,,,,,
O=C(Nc1nc2ccccc2s1)c1ccc(-c2ccccc2)cc1 [SW001811],0.7,165,125,58,348,450,,,185,120,220,85,125,59,,
O=C(Nc1nc2ccccc2s1)c1ccc([N+](=O)[O-])cc1 [SW003992],0.14,3500,,2270,1630,,0.65,,1580,1440,1040,524,2870,358,,
COc1ccc2sc(NC(=O)c3ccc([N+](=O)[O-])cc3)nc2c1 [SW004969],0.21,,5.5,0.2,,0.521,0.658,,,,,,,,,
COc1ccccc1NC(=O)c1sc2ccccc2c1Cl [SW004989],0.801,56.8,> 8,,,,0.052,,,249,,> 5,,43.7,1.02,38.7
O=C(Nc1nc2c(s1)CCCC2)c1ccc(Cc2ccccc2)cc1 [SW011940],0.037,50.6,7,5.86,,2.13,2.63,,35.6,4.26,,12.7,21.7,46.3,,
CCN(CC)c1ccc(C(=O)Nc2nc3ccc4ccccc4c3s2)cc1 [SW018825],0.129,,,2.23,,,0.424,,,,,47.5,,,,
O=C(Nc1nc2c(s1)CCCC2)c1ccccc1Oc1ccccc1 [SW045964],1,489,55,140,321,,3.2,,620,407,149,55.9,389,143,,
Cc1cc(C)nc(SCC(=O)Nc2nc3ccccc3s2)n1 [SW053831],47,33,104,85,60,,0.85,,65,98,80,29,43,63,,
CCOC(=O)c1c(NC(=O)c2ccc([N+](=O)[O-])cc2)sc2c1CCCC2 [SW108364-2],5.92,35.2,15.8,,35.2,,24.3,,,35.2,,23.4,,,,
O=C(Nc1ccccc1F)c1sc2ccccc2c1Cl [SW118094],1.05,0.09,,,34.1,0.606,,,,0.322,124,,,1.21,,
O=C(Nc1ccc(F)c(Cl)c1)c1sc2ccccc2c1Cl [SW118753],0.8,265,65,300,108,,0.9,,600,700,375,73,105,38,,
NC(=O)c1c(NC(=O)COc2ccccc2)sc2c1CCCC2 [SW119324],,34.4,0.881,28.5,10.4,,,,,,,> 8,44.5,,,
O=C(Nc1nc2ccc(F)cc2s1)c1sc2ccccc2c1Cl [SW147703],3.3,37.5,34.5,32.4,33.3,,1.12,,,,,13.5,13.3,,,
NC(=O)c1c(NC(=O)c2ccc(Br)o2)sc2c1CCCC2 [SW172864],,2.52,3.2,43.6,12.6,35.1,0.129,,44.5,1.71,,0.871,,,,
O=C(Nc1nnc(C2CCCCC2)s1)c1sc2ccccc2c1Cl [SW173997],0.27,23.1,21.5,23.8,,44.5,11.4,,41.3,24,40.9,16.9,23.8,48.5,,
O=C(Nc1cccc(F)c1)c1sc2ccccc2c1Cl [SW202550],1.91,0.566,,,105,,,,,17.3,,,,,,
COc1ccc2nc(NC(=O)c3cccnc3)sc2c1 [SW202774-1],1.08,1.01,36.6,0.336,46.7,1.31,1.34,,,,,25.5,35.2,,,
COc1ccc2nc(NC(=O)c3c(F)ccc(OC)c3F)sc2c1 [SW202775-1],6.53,16.9,,3.19,,48,5.96,,,,,8.87,35.5,,,
CCOc1cc(OCC)cc(C(=O)Nc2nc3ccc(OC)cc3s2)c1 [SW202776-1],,,15.3,8.15,,,4.56,,,,,,46.2,,,
O=C(c1ccc(O)cc1)c1ccc(NC(=O)c2sc3ccccc3c2Cl)cc1 [SW202856-1],33.8,1.06,4.76,12.8,6.08,44.5,48.4,,,13.3,40.6,13.6,20.4,40.2,,
CCOC(=O)c1c(NC(=O)c2ccc(F)cc2)sc2c1CCCC2 [SW202859-1],,,,31.4,38.2,,,,,,,47.1,,,,
O=C(Nc1nc2ccc(O)cc2s1)c1c(F)ccc(O)c1F [SW202860-1],4.05,15.1,41.7,44.9,,47.8,18.1,,,47.5,42.6,35.6,49.2,,,
